Data as given in US20230048888A1, “USE OF TRIAZOLOTRIAZINE DERIVATIVE IN TREATMENT OF DISEASES” (ZHEJIANG VIMGREEN PHARMACEUTICALS, LTD., priority 2019, published 2023).
In brackets after ≈: the same amount, converted by molar mass.

Legend:
[1] = Solubility in biological vehicles (SGF, FaSSIF, FeSSIF) at 37° C., HPLC; type: physicochemical; details: for Solubility / solubility at 2 h: 2 h; for solubility at 0.5 h / solubility at 2 h: 37 °C, thermodynamic from solid
Description: An Agilent HPLC 1260 series instrument was used in an HPLC analysis method. The HPLC method for testing solubility and stability was as follows:
In the experiment, the solubilities of the free-base crystal form and the acetate crystal form were determined at 37° C. in biological vehicles (simulated gastric fluid (SGF), fasted state stimulated intestinal fluid (FaSSIF) and fed state stimulated intestinal fluid (FeSSIF)). 3 mg of a sample was added to a sample bottle, and 1 mL of biologically relevant vehicle was added to the same. The suspension was shaken at a speed of 500 rpm at 37° C.

[2] = target: T1, human ADORA1 (Homo sapiens, UniProt P30542); assay: Calcium flow test (FLIPR), ADORA1 stably transfected HEK293; type: cell-based; details: Table 9
T1 construct: host or cells: HEK293
T1 sequence (P30542 whole entry): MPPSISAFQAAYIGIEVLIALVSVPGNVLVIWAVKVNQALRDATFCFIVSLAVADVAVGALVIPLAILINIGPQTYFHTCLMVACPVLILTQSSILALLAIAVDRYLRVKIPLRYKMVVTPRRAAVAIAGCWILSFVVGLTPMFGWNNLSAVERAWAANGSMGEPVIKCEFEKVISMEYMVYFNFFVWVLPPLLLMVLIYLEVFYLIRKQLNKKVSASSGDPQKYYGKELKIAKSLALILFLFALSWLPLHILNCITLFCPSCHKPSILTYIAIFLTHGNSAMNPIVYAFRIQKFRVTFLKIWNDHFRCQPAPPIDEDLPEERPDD
Source text: The binding of the A2AR agonist to A2AR could activate a downstream pathway to increase the intracellular calcium ion concentration. The antagonist would competitively occupy the binding site where the agonist binds to A2AR, thereby interrupting the intracellular signal transduction and leading to a change in the intracellular calcium ion concentration. By detecting the strength of the intracellular calcium ion signal, the antagonistic activities of the compound on human ADORA1, ADORA2A, ADORA2B and ADORA3 adenosine receptors were determined. […]
7) The FLIPR instrument software was operated; following a set program, 10 μL of experimental buffer salt solution was added to the cell plate; and fluorescence signals were read. Then, 10 μL of the reference compound of agonist at a predetermined concentration was added to the cell plate, and the fluorescence signals were read. After reading, data was exported by means of “Max-Min” and “Read 91 to Maximum allowed” in the software, the EC80 of each cell line was calculated, and an agonist with a concentration of 6×EC80 was prepared.
9) The FLIPR instrument software was operated; following a set program, 10 μL of the test compound and 10 μL of the reference compound were added at a predetermined concentration to the cell plate; and the fluorescence signals were read. […]

[3] = test system: haloperidol-induced stiffness; assay: Haloperidol-induced rat Parkinson's disease stiffness model (stiffness latency on metal rod); type: in vivo
Description: The animals required for the day were transferred from the rearing room to an operation room in advance, and were let to acclimate for at least 30 min before the test was initiated. […] After 30 minutes, the test animals were intraperitoneally injected with haloperidol or vehicle 2 without haloperidol, and put back to the original rearing cages. At 60 and 120 minutes after the injection of haloperidol or vehicle 2, the forelimbs of the rat were gently placed vertically on a horizontal metal rod with a length of 20.5 cm, a diameter of 1.2 cm, and a height of 8.5 cm above the workbench, then its hind limbs were gently placed on a test box, and timing started. When the rat moved or climbed down on the metal rod with forelimbs, the timing was stopped, and the duration for the two forelimbs of the rat to maintain the posture on the metal rod was recorded, i.e., being recorded as stiffness latency. If the rat's front paws were not put down, the observation was terminated after 600 sec, and the stiffness latency of this animal was recorded as 600 sec. When the rod climbing test was completed that day, 5 animals from each group were perfused and fixed, and whole brains were removed for preservation. Stiffness latency: the time for the two forelimbs of a rat to keep still on the metal rod. The longest stiffness latency was 600 sec. Stiffness rate %=(stiffness latency/600)*100% All measurement data were represented as mean±standard error of mean (mean±SEM), and check analysis was performed by Prism 8.0 statistical software.

[4] = fasted state simulated intestinal fluid (FaSSIF), fassif
[5] = fed state simulated intestinal fluid (FeSSIF), fessif
[6] = simulated gastric fluid (SGF), simulated gastric fluid, SGF
[7] = 10 mg/kg intragastric, 60 min after haloperidol
[8] = 10 mg/kg intragastric, 120 min after haloperidol

SMILES	solubility at 0.5 h [1, 4] [µg/mL]	solubility at 2 h [1, 4] [µg/mL]	solubility at 0.5 h [1, 5] [µg/mL]	solubility at 2 h [1, 5] [µg/mL]	solubility at 0.5 h [1, 6] [µg/mL]	solubility at 2 h [1, 6] [µg/mL]	IC50 [2] [nM]	Stiffness rate ([3]; 10 mg/kg intragastric, 60 min) [%]	Stiffness latency [3, 7] [s]	Stiffness rate ([3]; 10 mg/kg intragastric, 120 min) [%]	Stiffness latency [3, 8] [s]	other results
Nc1nc(NCCc2ccc(NC3COC3)cc2)nc2nc(-c3ccco3)nn12 [Compound 22, 2-(furan-2-yl)-N5-(4-(oxetan-3-ylamino)phenethyl)-[1,2,4]triazolo[1,5-a][1,3,5]triazine-5,7-diamine]	3.7 (≈ 9.43 µM)	4.2 (≈ 10.7 µM)	7 (≈ 17.8 µM)	8.8 (≈ 22.4 µM)	622 (≈ 1590 µM)	712 (≈ 1810 µM)	218 ± 148					Solubility ([1]; SGF, listed as Free base): 712.1 µg/mL (≈ 1810 µM)
CCn1c(=O)c2c(nc(/C=C/c3ccc(OC)c(OC)c3)n2C)n(CC)c1=O [Istradefylline, reference compound]								0.2 ± 0.1	1.4 ± 0.8	0.07 ± 0.05	0.4 ± 0.3	
Cn1nnc(-c2ccc(CCNc3nc(N)n4nc(-c5ccco5)nc4n3)cc2)n1 [Compound 40, N5-(4-(2-methyl-2H-tetrazol-5-yl)phenethyl)-2-(furan-2-yl)-[1,2,4]triazolo[1,5-a][1,3,5]triazine-5,7-diamine]							228 ± 105					
CC(=O)O.Nc1nc(NCCc2ccc(NC3COC3)cc2)nc2nc(-c3ccco3)nn12 [Acetate of Compound 22, 2-(furan-2-yl)-N5-(4-(oxetane-3-ylamino)phenethyl)-[1,2,4]triazolo[1,5-a][1,3,5]triazine-5,7-diamine acetate]	9.3	9.9	33.1	33.8	> 2890	> 2890		0.1 ± 0.06	0.7 ± 0.4	0.4 ± 0.2	2.6 ± 1.5	Solubility ([1]; SGF, acetate): >2887 µg/mL; Stiffness rate ([3]; 3 mg/kg intragastric, 60 min): 1.6 ± 0.8%; Stiffness latency ([3]; 3 mg/kg intragastric, 60 min after haloperidol): 9.3 ± 4.5 s; Stiffness rate ([3]; 3 mg/kg intragastric, 120 min): 4.1 ± 1.9%; Stiffness latency ([3]; 3 mg/kg intragastric, 120 min after haloperidol): 24.8 ± 11.2 s; Stiffness rate ([3]; 30 mg/kg intragastric, 60 min): 0.1 ± 0.05%; Stiffness latency ([3]; 30 mg/kg intragastric, 60 min after haloperidol): 0.6 ± 0.3 s; Stiffness rate ([3]; 30 mg/kg intragastric, 120 min): 0.1 ± 0.07%; Stiffness latency ([3]; 30 mg/kg intragastric, 120 min after haloperidol): 0.6 ± 0.4 s
